Data taken from patent publication US11352393B2, “Myotoxin-neutralizing peptides” (priority 2018, dated 2022).
Square brackets hold non-standard residues; d marks the D form. Ends that are not written are not given here. Peptide text beside a SMILES is read from it.

Tests used:
[1] = Fluorescence polarization test for self-assembly or aggregation; type: physicochemical; details: absence of Myotoxin-II
myotoxin II [2] = target: T1, myotoxin II (Bothrops asper, UniProt P24605); type: binding
myotoxin II [3] = target: T1, myotoxin II

T1 sequence (P24605 17-137 limits assumed): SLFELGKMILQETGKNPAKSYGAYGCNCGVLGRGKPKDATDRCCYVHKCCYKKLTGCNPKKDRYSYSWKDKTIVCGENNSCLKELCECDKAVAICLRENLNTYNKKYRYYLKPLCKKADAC

Compound | Self-assembling or aggregating ability (artificial increase of FP signal of TAMRA-probe) [1] | ELISA signal at different dilutions, myotoxin II coated versus uncoated wells (myotoxin II [2]) | ELISA signal, myotoxin II coated wells versus uncoated control (myotoxin II [2]) | Signal intensity and signal to noise ratio in cross reactivity ELISA (myotoxin II [2]) | Cytotoxicity of Myotoxin II in presence of peptide (LDH release) (myotoxin II [3]) [%]
Y11D-Y (DHWVWGWNYQ[dY]QPQEWHTES) [Clone Y11D-Y] | did not artificially increase the FP signal | – | – | – | –
VNRMLELKIMDYGGG [Clone 1.1] | – | low difference for the dilutions of 1/100 and 1/1000 | greatest difference between toxin coated wells and control | – | –
DYDRIPDIPMLGGGG [Clone 1.4] | – | low difference for the dilutions of 1/100 and 1/1000 | greatest difference between toxin coated wells and control | – | –
NGYWSSQQYMQQAPMPWRIP [Clone 4.10] | – | highest signals and also the highest signal to noise ratio in all of the dilutions | greatest difference between toxin coated wells and control | highest signal intensity and the best signal to noise ratio | –
QSVTMGPGLITHSPIHTQSK [Clone 1.2] | – | low difference for the dilutions of 1/100 and 1/1000 | greatest difference between toxin coated wells and control | – | –
CC(C)[C@H](NC(=O)[C@H](Cc1c[nH]c2ccccc12)NC(=O)[C@H](Cc1c[nH]cn1)NC(=O)[C@@H](N)CC(=O)O)C(=O)N[C@@H](Cc1c[nH]c2ccccc12)C(=O)NCC(=O)N[C@@H](Cc1c[nH]c2ccccc12)C(=O)N[C@@H](CC(N)=O)C(=O)N[C@@H](Cc1ccc(O)cc1)C(=O)N[C@@H](CCC(N)=O)C(=O)N[C@@H](Cc1ccc(O)cc1)C(=O)N[C@@H](CCC(N)=O)C(=O)N1CCC[C@H]1C(=O)N[C@@H](CCC(N)=O)C(=O)N[C@@H](CCC(=O)O)C(=O)N[C@@H](Cc1c[nH]c2ccccc12)C(=O)N[C@@H](Cc1c[nH]cn1)C(=O)N[C@H](C(=O)N[C@@H](CCC(=O)O)C(=O)N[C@@H](CO)C(=O)O)[C@@H](C)O [Clone 1.9] (H-DHWVWGWNYQYQPQEWHTES-OH) | – | – | – | – | 4
SWEPYANPTRYKFHDW [Clone 1.8] | – | low difference for the dilutions of 1/100 and 1/1000 | greatest difference between toxin coated wells and control | – | –
